Species: Rattus norvegicus
Assay: Inhibition of deethylase activity upon incubation with liver microsomes from phenobarbital induced rats
Assay type: functional

## CC(=O)Nc1ccc(OCC(F)(F)F)cc1
  IC50: 100 µM

## O=c1ccc2ccc(OCC(F)(F)F)cc2o1
  IC50: 230 µM

From ChEMBL document CHEMBL1126981, “Resistance of the 2,2,2-trifluoroethoxy aryl moiety to the cytochrome P-450 metabolism in rat liver microsomes” (Bioorg Med Chem Lett, 1993)
